From patent US8048927B2 (Besins Healthcare Luxembourg, priority 2004, dated 2011)

Columns and labels:
[1] = percutaneous [^3H]-4-hydroxy tamoxifen delivery in breast cancer patients (Example 1)
Description: The patients received [^3H]-labeled drug applied directly on the affected breasts at specified intervals ranging from 12 hours to 7 days before surgery to excise diseased tissue. Breast tissue from three regions: the tumor, tissue immediately surrounding the tumor, and normal tissue, was excised and immediately frozen in liquid nitrogen. Additionally, plasma and urine samples were obtained at scheduled intervals and frozen until analysis.

[2] = tested on: p53(−) normal human mammary epithelial cells; conditions: cited from earlier work
[3] = Group 1: PO tamoxifen 20 mg/day (10 mg b.i.d.), 3-4 weeks; cited from earlier work
[4] = tested on: benign breast disease; conditions: cited from earlier work
[5] = Group 2 (0.5 mg/day gel): seventh day of treatment; Group 1 (oral tamoxifen): fifth day; cited from earlier work
[6] = tested on: rat liver; conditions: cited from earlier work
[7] = target: T1, estrone sulphatase (Homo sapiens, UniProt P08842); conditions: mammary cancer cell lines; cited from earlier work
T1 construct: estrone sulphatase activity in mammary cancer cell lines; endogenous in cells
T1 sequence (P08842 22-583): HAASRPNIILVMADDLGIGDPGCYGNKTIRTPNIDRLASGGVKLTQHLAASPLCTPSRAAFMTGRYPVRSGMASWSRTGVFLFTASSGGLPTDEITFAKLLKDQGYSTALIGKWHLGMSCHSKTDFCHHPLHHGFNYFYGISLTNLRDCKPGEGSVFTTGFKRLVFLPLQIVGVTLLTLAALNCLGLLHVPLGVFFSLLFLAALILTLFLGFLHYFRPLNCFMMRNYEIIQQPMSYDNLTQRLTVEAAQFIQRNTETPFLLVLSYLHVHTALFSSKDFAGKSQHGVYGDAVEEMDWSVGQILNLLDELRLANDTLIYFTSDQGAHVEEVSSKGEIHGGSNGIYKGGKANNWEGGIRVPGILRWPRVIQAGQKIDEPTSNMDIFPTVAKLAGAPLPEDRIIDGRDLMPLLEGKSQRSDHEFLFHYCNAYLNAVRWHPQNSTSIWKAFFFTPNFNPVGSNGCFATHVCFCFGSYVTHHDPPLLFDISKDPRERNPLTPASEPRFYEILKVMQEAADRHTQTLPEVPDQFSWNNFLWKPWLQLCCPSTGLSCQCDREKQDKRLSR

Row | SMILES | time of plateau of radioactivity in blood ([1]; percutaneous application) | initiation of apoptosis [2] | Normal Tissue concentration of 4-hydroxy tamoxifen, Mean ± SD [3] | Plasma concentration of 4-hydroxy tamoxifen, Day Pre-Surgery, Mean ± SD [3] | Plasma concentration of 4-hydroxy tamoxifen, Day of Surgery, Mean ± SD [3] | Tumor concentration of 4-hydroxy tamoxifen, Mean ± SD [3] | decrease of risk, adenosis ([4]; in vivo) | decrease of risk, cyst ([4]; in vivo) | decrease of risk, duct ectasia ([4]; in vivo) | decrease of risk, fibrocystic disease ([4]; in vivo) | decrease of risk, hyperplasia ([4]; in vivo) | decrease of risk, metaplasia ([4]; in vivo) | reduction of the risk of developing benign breast disease, overall ([4]; in vivo) | reduction of the need for breast biopsies ([4]; women under 50) | retention in the breast ([1]; percutaneous application to the breast) | side effects reported by one person of the group [5] | rat liver carcinogenicity [6] | inhibitory effect on estrone sulphatase activity [7]
1 | CC/C(=C(\c1ccccc1)c1ccc(OCCN(C)C)cc1)c1ccccc1 [[^3H]-tamoxifen] | 2 days |  |  |  |  |  |  |  |  |  |  |  |  |  |  |  |  | 
2 | CC/C(=C(\c1ccccc1)c1ccc(OCCN(C)C)cc1)c1ccccc1 [tamoxifen] |  | initiates apoptosis | 10215 ± 2151 pg/g | 2.326 ± 0.585 ng/mL | 2.317 ± 1.098 ng/mL | 12453 ± 3751 pg/g | 41% | 34% | 28% | 33% | 40% | 49% | 28% | 41% | shorter and far weaker | hot flashes and mild vaginitis | potent rat liver carcinogen | little or no effect
